Test results: US10730863B2, “Bridged bicyclic compounds as farnesoid X receptor modulators” (BRISTOL-MYERS SQUIBB COMPANY, priority 2017, dated 2020)
pEC50: −log10 of the molar value.

Molecular target: FXR (Homo sapiens (Human), UniProt Q96RI1)
Assay: FXR EC50 (FXR agonist activity reported with each example)
Assay type: cell-based

FXR, sequence (Q96RI1 262-486): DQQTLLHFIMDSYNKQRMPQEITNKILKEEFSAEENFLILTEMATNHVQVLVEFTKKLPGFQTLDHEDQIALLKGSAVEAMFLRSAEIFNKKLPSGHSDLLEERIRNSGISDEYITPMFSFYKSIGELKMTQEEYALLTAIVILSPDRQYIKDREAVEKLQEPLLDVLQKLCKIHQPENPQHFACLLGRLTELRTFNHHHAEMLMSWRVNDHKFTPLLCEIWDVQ

SMILES	pEC50
Cn1nc(C(=O)O)c2ccc(C34CCC(OCc5c(-c6c(Cl)cncc6Cl)noc5C5CC5)(CC3)CC4)nc21 [Example 365]	7.31
O=C(O)c1cc(C#CC23CCC(OCc4c(-c5c(Cl)cncc5Cl)noc4C4CC4)(CC2)CC3)cc(C(F)(F)F)c1 [Example 366]	7.57
COc1ccc(C#CC23CCC(OCc4c(-c5c(Cl)cncc5Cl)noc4C4CC4)(CC2)CC3)cc1C(=O)O [Example 367]	7.04
O=C(O)c1cccc2nc(C34CCC(OCc5c(-c6c(Cl)cncc6Cl)noc5C5CC5)(CC3)CC4)ccc12 [Example 368]	7.44
O=C(O)c1cc(F)c2nc(C34CCC(OCc5c(-c6c(Cl)cncc6Cl)noc5C5CC5)(CC3)CC4)ccc2c1 [Example 369]	7.39
O=C(O)c1cc(C(F)(F)F)c2nc(C34CCC(OCc5c(-c6c(Cl)cncc6Cl)noc5C5CC5)(CC3)CC4)ccc2c1 [Example 370]	7.25
COc1ccc(C(=O)O)c2ccc(C34CCC(OCc5c(-c6c(Cl)cncc6Cl)noc5C5CC5)(CC3)CC4)nc12 [Example 371]	7.74
O=C(O)c1cc(C(F)(F)F)c2nccc(C34CCC(OCc5c(-c6c(Cl)cncc6Cl)noc5C5CC5)(CC3)CC4)c2c1 [Example 372]	6.24
O=C(O)c1cc(C(F)(F)F)cc(C#CC23CCC(OCc4c(-c5c(Cl)cncc5Cl)noc4C4CC4)(CC2)CC3)n1 [Example 373]	6.34
O=C(O)c1cnc(C#CC23CCC(OCc4c(-c5c(Cl)cncc5Cl)noc4C4CC4)(CC2)CC3)cc1C(F)(F)F [Example 374]	6.89
COc1cc(C(=O)O)nc2ccc(C#CC34CCC(OCc5c(-c6c(Cl)cncc6Cl)noc5C5CC5)(CC3)CC4)cc12 [Example 375]	7.24
O=C(O)c1cc(OC(F)F)c2cc(C#CC34CCC(OCc5c(-c6c(Cl)cncc6Cl)noc5C5CC5)(CC3)CC4)ccc2n1 [Example 376]	7.57
COc1cc(C#CC23CCC(OCc4c(-c5c(Cl)cncc5Cl)noc4C4CC4)(CC2)CC3)nc(C(=O)O)c1 [Example 377]	6.41
O=C(O)c1cc(C#CC23CCC(OCc4c(-c5c(Cl)cncc5Cl)noc4C4CC4)(CC2)CC3)cc(OC(F)(F)F)c1 [Example 378]	6.89
O=C(O)c1cnc(C#CC23CCC(OCc4c(-c5c(Cl)cncc5Cl)noc4C4CC4)(CC2)CC3)c(F)c1 [Example 379]	6.62
COc1cc(C#CC23CCC(OCc4c(-c5c(Cl)cncc5Cl)noc4C4CC4)(CC2)CC3)cc(C(=O)O)c1 [Example 380]	7.62
COc1c(C#CC23CCC(OCc4c(-c5c(Cl)cncc5Cl)noc4C4CC4)(CC2)CC3)cccc1C(=O)O [Example 381]	6.66
O=C(O)c1ccc2cc(C#CC34CCC(OCc5c(-c6c(Cl)cncc6Cl)noc5C5CC5)(CC3)CC4)ccc2n1 [Example 382]	7.21
COc1c(C#CC23CCC(OCc4c(-c5c(Cl)cncc5Cl)noc4C4CC4)(CC2)CC3)cccc1C(=O)O [Example 383]	6.09

SMILES	pEC50
N#Cc1ccc(C(=O)O)c2ccc(C34CCC(OCc5c(-c6c(Cl)cncc6Cl)noc5C5CC5)(CC3)CC4)nc12 [Example 384, 8-cyano-2-(4-((5-cyclopropyl-3-(3,5-dichloropyridin-4-yl)isoxazol-4-yl)methoxy)bicyclo[2.2.2]octan-1-yl)quinoline-5-carboxylic acid]	6.09
O=C(O)c1ccc(C2CC2)c2nc(C34CCC(OCc5c(-c6c(Cl)cncc6Cl)noc5C5CC5)(CC3)CC4)ccc12 [Example 385, 8-cyclopropyl-2-(4-((5-cyclopropyl-3-(3,5-dichloropyridin-4-yl)isoxazol-4-yl)methoxy)bicyclo[2.2.2]octan-1-yl)quinoline-5-carboxylic acid]	7.89
COCc1cc(C#CC23CCC(OCc4c(-c5c(Cl)cncc5Cl)noc4C4CC4)(CC2)CC3)cc(C(=O)O)c1 [Example 386]	7.51
Cc1cc(C(=O)O)ncc1C#CC12CCC(OCc3c(-c4c(Cl)cncc4Cl)noc3C3CC3)(CC1)CC2 [Example 387]	7.24
Cc1cc(C#CC23CCC(OCc4c(-c5c(Cl)cncc5Cl)noc4C4CC4)(CC2)CC3)cnc1C(=O)O [Example 388]	7.26
Cc1ccc(C(=O)O)c2ccc(C34CCC(OCc5c(-c6c(Cl)cncc6Cl)noc5C5CC5)(CC3)CC4)nc12 [Example 389]	8.22
CC(C)Oc1cc(C(=O)O)nc2ccc(C#CC34CCC(OCc5c(-c6c(Cl)cncc6Cl)noc5C5CC5)(CC3)CC4)cc12 [Example 390]	7.70
CC(C)Oc1ccc(C(=O)O)c2ccc(C34CCC(OCc5c(-c6c(Cl)cncc6Cl)noc5C5CC5)(CC3)CC4)nc12 [Example 391, 2-(4-((5-cyclopropyl-3-(3,5-dichloropyridin-4-yl)isoxazol-4-yl)methoxy)bicyclo[2.2.2]octan-1-yl)-8-isopropoxyquinoline-5-carboxylic acid]	7.85
O=C(O)c1ccc(OCC2CC2)c2nc(C34CCC(OCc5c(-c6c(Cl)cncc6Cl)noc5C5CC5)(CC3)CC4)ccc12 [Example 392]	7.62
O=C(O)c1ccn2c(C#CC34CCC(OCc5c(-c6c(Cl)cncc6Cl)noc5C5CC5)(CC3)CC4)cnc2c1 [Example 393]	6.57
O=C(O)c1cn2ccc(C#CC34CCC(OCc5c(-c6c(Cl)cncc6Cl)noc5C5CC5)(CC3)CC4)cc2n1 [Example 394]	6.74
O=C(O)c1cnn2ccc(C#CC34CCC(OCc5c(-c6c(Cl)cncc6Cl)noc5C5CC5)(CC3)CC4)cc12 [Example 395]	6.92
O=C(O)c1cccn2c(C#CC34CCC(OCc5c(-c6c(Cl)cncc6Cl)noc5C5CC5)(CC3)CC4)cnc12 [Example 397]	7.32
O=C(O)c1ccc(C(F)(F)F)c2nc(C34CCC(OCc5c(-c6c(Cl)cncc6Cl)noc5C5CC5)(CC3)CC4)ccc12 [Example 398]	7.52
Cn1cc(C#CC23CCC(OCc4c(-c5c(Cl)cncc5Cl)noc4C4CC4)(CC2)CC3)c2ccc(C(=O)O)cc21 [Example 399]	7.08
CC(C)Oc1cc(C#CC23CCC(OCc4c(-c5c(Cl)cncc5Cl)noc4C4CC4)(CC2)CC3)cc(C(=O)O)c1 [Example 400]	7.54
O=C(O)c1cc(C#CC23CCC(OCc4c(-c5c(Cl)cncc5Cl)noc4C4CC4)(CC2)CC3)cc2cn[nH]c12 [Example 401]	7.13
O=C(O)c1cc(OC2CCC2)c2cc(C#CC34CCC(OCc5c(-c6c(Cl)cncc6Cl)noc5C5CC5)(CC3)CC4)ccc2n1 [Example 402]	7.28
CCn1nc(C(=O)O)c2ccc(C34CCC(OCc5c(-c6c(Cl)cncc6Cl)noc5C5CC5)(CC3)CC4)nc21 [Example 403]	8.40

SMILES	pEC50
O=C(O)c1cc(C#CC23CCC(OCc4c(-c5c(Cl)cncc5Cl)noc4C4CC4)(CC2)CC3)cn2ccnc12 [Example 404]	6.85
O=C(O)c1ccc(OC2CCC2)c2nc(C34CCC(OCc5c(-c6c(Cl)cncc6Cl)noc5C5CC5)(CC3)CC4)ccc12 [Example 405]	7.55
O=C(O)c1ccc(OC2COC2)c2nc(C34CCC(OCc5c(-c6c(Cl)cncc6Cl)noc5C5CC5)(CC3)CC4)ccc12 [Example 406]	7.27
O=C(O)c1ccc(O)c2nc(C34CCC(OCc5c(-c6c(Cl)cncc6Cl)noc5C5CC5)(CC3)CC4)ccc12 [Example 407]	7.72
O=C(O)c1ccc(OC2CCCC2)c2nc(C34CCC(OCc5c(-c6c(Cl)cncc6Cl)noc5C5CC5)(CC3)CC4)ccc12 [Example 408]	8.00
O=C(O)c1ccc(N2CCCC2)c2nc(C34CCC(OCc5c(-c6c(Cl)cncc6Cl)noc5C5CC5)(CC3)CC4)ccc12 [Example 409]	7.09
O=C(O)c1ccc(N2CCOCC2)c2nc(C34CCC(OCc5c(-c6c(Cl)cncc6Cl)noc5C5CC5)(CC3)CC4)ccc12 [Example 410, 2-(4-((5-cyclopropyl-3-(3,5-dichloropyridin-4-yl)isoxazol-4-yl)methoxy)bicyclo[2.2.2]octan-1-yl)-8-morpholinoquinoline-5-carboxylic acid]	7.44
O=C(O)c1cc(C#CC23CCC(OCc4c(-c5c(Cl)cncc5Cl)noc4C4CC4)(CC2)CC3)cc2[nH]ncc12 [Example 411]	7.05
O=C(O)c1ccc(C#CC23CCC(OCc4c(-c5c(Cl)cncc5Cl)noc4C4CC4)(CC2)CC3)c2ncccc12 [Example 412]	8.00
CN1CCN(c2ccc(C(=O)O)c3ccc(C45CCC(OCc6c(-c7c(Cl)cncc7Cl)noc6C6CC6)(CC4)CC5)nc23)CC1 [Example 413]	5.82
O=C(O)c1ccc(OC2CCOCC2)c2nc(C34CCC(OCc5c(-c6c(Cl)cncc6Cl)noc5C5CC5)(CC3)CC4)ccc12 [Example 414]	7.54
O=C(O)c1cc(C#CC23CCC(OCc4c(-c5c(Cl)cncc5Cl)noc4C4CC4)(CC2)CC3)cc2[nH]ccc12 [Example 415]	7.20
O=C(O)c1cc(C#CC23CCC(OCc4c(-c5c(Cl)cncc5Cl)noc4C4CC4)(CC2)CC3)c2cc[nH]c2c1 [Example 416]	7.40
Cc1nc(C#CC23CCC(OCc4c(-c5c(Cl)cncc5Cl)noc4C4CC4)(CC2)CC3)ccc1C(=O)O [Example 417]	6.52
CC(C)(O)COc1ccc(C(=O)O)c2ccc(C34CCC(OCc5c(-c6c(Cl)cncc6Cl)noc5C5CC5)(CC3)CC4)nc12 [Example 418, 2-(4-((5-cyclopropyl-3-(3,5-dichloropyridin-4-yl)isoxazol-4-yl)methoxy)bicyclo[2.2.2]octan-1-yl)-8-(2-hydroxy-2-methylpropoxy)quinoline-5-carboxylic acid]	6.92
O=C(O)c1ccc(C#CC23CCC(OCc4c(-c5c(Cl)cncc5Cl)noc4C4CC4)(CC2)CC3)nn1 [Example 419]	5.70
O=C(O)c1cc(C(F)(F)F)cc2nc(C34CCC(OCc5c(-c6c(Cl)cncc6Cl)noc5C5CC5)(CC3)CC4)ccc12 [Example 420]	8.52
O=C(O)c1ccc2nc(C34CCC(OCc5c(-c6c(Cl)cncc6Cl)noc5C5CC5)(CC3)CC4)ccc2n1 [Example 421]	7.28
O=C(O)c1cc(C(F)(F)F)c2ccc(C34CCC(OCc5c(-c6c(Cl)cncc6Cl)noc5C5CC5)(CC3)CC4)nc2c1 [Example 422]	6.44
